Test results reported in ChEMBL document CHEMBL1142054, “QSAR-by-NMR: quantitative insights into structural determinants for binding affinity by analysis of 1H/15N chemical shift differences in MMP-3 ligands” (Bioorg Med Chem Lett, 2005).

Tests used:
Stromelysin-1 [1] = biological target: T1, Stromelysin-1 (Homo sapiens, UniProt P08254); test: (§1) Binding affinity for human Matrix metalloprotease-3
Target sequence in this assay (P08254 100-477 limits assumed): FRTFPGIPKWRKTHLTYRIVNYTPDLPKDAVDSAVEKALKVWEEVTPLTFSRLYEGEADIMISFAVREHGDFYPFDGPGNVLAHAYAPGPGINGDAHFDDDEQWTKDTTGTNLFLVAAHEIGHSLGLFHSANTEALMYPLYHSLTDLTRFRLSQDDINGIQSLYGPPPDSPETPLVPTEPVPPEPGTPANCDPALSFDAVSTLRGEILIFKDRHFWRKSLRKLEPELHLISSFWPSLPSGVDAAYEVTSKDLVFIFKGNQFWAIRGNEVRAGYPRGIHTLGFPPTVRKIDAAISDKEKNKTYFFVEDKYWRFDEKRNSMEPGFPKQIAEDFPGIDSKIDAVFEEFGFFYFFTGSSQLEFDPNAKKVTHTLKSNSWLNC

Neutrophil collagenase = Neutrophil collagenase (Homo sapiens, UniProt P22894); test: Binding affinity for human Matrix metalloprotease-8
Stromelysin-1 [2] = biological target: T1, Stromelysin-1; test: as §1; remark: listed apart in the source
Target sequence in this assay (P08254 whole entry): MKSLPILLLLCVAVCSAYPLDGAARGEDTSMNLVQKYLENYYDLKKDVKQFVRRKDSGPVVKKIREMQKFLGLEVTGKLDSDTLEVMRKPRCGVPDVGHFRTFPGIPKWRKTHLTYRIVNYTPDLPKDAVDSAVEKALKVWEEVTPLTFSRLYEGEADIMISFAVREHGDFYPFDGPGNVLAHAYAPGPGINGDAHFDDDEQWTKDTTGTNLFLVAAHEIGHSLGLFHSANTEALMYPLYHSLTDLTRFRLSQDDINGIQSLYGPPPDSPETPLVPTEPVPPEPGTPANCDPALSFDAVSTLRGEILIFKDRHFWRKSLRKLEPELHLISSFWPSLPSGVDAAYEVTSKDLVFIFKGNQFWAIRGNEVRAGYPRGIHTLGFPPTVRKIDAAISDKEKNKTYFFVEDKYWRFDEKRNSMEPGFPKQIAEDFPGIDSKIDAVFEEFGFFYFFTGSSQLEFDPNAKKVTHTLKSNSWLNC

Sequence of Neutrophil collagenase (P22894 whole entry): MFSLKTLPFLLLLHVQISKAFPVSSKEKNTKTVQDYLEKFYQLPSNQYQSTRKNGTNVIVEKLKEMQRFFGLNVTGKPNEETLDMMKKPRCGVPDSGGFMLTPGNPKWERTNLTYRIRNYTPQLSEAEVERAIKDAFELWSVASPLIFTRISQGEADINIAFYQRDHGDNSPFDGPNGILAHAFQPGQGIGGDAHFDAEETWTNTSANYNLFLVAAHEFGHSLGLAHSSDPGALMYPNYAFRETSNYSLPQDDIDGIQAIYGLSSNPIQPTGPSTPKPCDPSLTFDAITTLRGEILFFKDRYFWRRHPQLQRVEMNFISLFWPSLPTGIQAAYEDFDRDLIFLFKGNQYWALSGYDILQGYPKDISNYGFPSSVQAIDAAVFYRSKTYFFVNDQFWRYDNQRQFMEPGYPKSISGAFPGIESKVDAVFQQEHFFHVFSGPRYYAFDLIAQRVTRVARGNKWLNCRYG

| Compound | Concentration (Stromelysin-1 [1]) [nM] | IC50 (Neutrophil collagenase) [µM] | IC50 (Stromelysin-1 [2]) [µM] |
| --- | --- | --- | --- |
| O=C(O)[C@H]1Cc2ccccc2CC1S(=O)(=O)c1ccc(-c2ccccc2)cc1 (some centres not stated) | – | 0.01 | 0.5 |
| O=C(O)[C@H]1Cc2ccccc2CC1S(=O)(=O)c1ccc(Cl)cc1 (some centres not stated) | 100 | – | – |
| O=C(O)[C@H]1Cc2ccccc2CC1S(=O)(=O)c1ccc(F)cc1 (some centres not stated) | 400 | – | – |

The next lines start with the values.

| Concentration (Stromelysin-1 [1]) [nM] | IC50 (Neutrophil collagenase) [µM] | IC50 (Stromelysin-1 [2]) [µM] | Compound |
| --- | --- | --- | --- |
| 1000 | – | – | N#Cc1ccc(-c2ccc(S(=O)(=O)C3Cc4ccccc4C[C@@H]3C(=O)O)cc2)cc1 (some centres not stated) |
| 50 | – | – | O=C(O)[C@H]1Cc2ccccc2CC1S(=O)(=O)c1ccc(CCc2ccccc2)cc1 (some centres not stated) |
| 200 | – | – | O=C(O)[C@H]1Cc2ccccc2CC1S(=O)(=O)c1ccc(Oc2ccccc2)cc1 (some centres not stated) |
